“And” between values parts separate entries of the source, which are not always exact repeats. Equal values may be shown once.
Experiments:
[1] = molecular target: C-C chemokine receptor type 5 (Homo sapiens, UniProt P51681); assay: Antagonist activity at CCR5 (unknown origin) expressed in HEK293 cells co-expressing Galpha16 assessed as intracellular calcium change incubated for 15 mins by Fluo-4 AM calcium flux assay; type: functional, cell-based
[2] = test system: Human immunodeficiency virus 1; assay: Antiviral activity against HIV-1 Ba-L infected in human TZM-bl cells measured after 48 hrs incubation by luciferase based analysis; type: functional, organism-based; conditions: Human immunodeficiency virus 1, Ba-L
[3] = Cytotoxicity against human TZM-bl cells incubated for 48 hrs by MTT assay; type: toxicity, cell-based
in vitro [4] = conditions: human, TZM-bl cells
Description: Therapeutic index, ratio of CC50 for human TZM-bl cells to EC50 for antiviral activity against HIV-1 Ba-L

[5] = test system: Human immunodeficiency virus 1; assay: Antiviral activity against HIV-1 SF162 infected in human TZM-bl cells measured after 48 hrs incubation by luciferase based analysis; type: functional, organism-based; conditions: Human immunodeficiency virus 1, SF162, TZM-bl
[6] = test system: Human immunodeficiency virus 1; assay: Antiviral activity against HIV-1 YU-2 infected in human TZM-bl cells measured after 48 hrs incubation by luciferase based analysis; type: functional, organism-based
[7] = Cytotoxicity against human PM1 cells incubated for 48 hrs by MTT assay; type: toxicity, cell-based
[8] = Cytotoxicity against human HOS-CD4-CCR5 cells incubated for 48 hrs by MTT assay; type: toxicity, cell-based
[9] = Cytotoxicity against human PBMC cells incubated for 48 hrs by MTT assay; type: toxicity, cell-based
[10] = test system: Human immunodeficiency virus 1; assay: Antiviral activity against HIV-1 Ba-L infected in human HOS-CD4-CCR5 cells measured after 48 hrs incubation by ELISA based p24 antigen assay; type: functional, organism-based; conditions: Human immunodeficiency virus 1, Ba-L
[11] = test system: Human immunodeficiency virus 1; assay: Antiviral activity against HIV-1 Ba-L infected in human PM1 cells measured after 48 hrs incubation by ELISA based p24 antigen assay; type: functional, organism-based; conditions: Human immunodeficiency virus 1, Ba-L, PM1, 48 h
[12] = test system: Human immunodeficiency virus 1; assay: Antiviral activity against HIV-1 IIIB infected in human TZM-bl cells measured after 48 hrs incubation by luciferase based analysis; type: functional, organism-based; conditions: Human immunodeficiency virus 1, IIIB
[13] = test system: Human immunodeficiency virus 1; assay: Antiviral activity against HIV-1 KM018 clinical isolate infected in human PBMC measured after 48 hrs incubation by luciferase based analysis; type: functional, organism-based; conditions: Human immunodeficiency virus 1, KM018, PBMC
[14] = test system: Human immunodeficiency virus 1; assay: Antiviral activity against HIV-1 KIZ001 clinical isolate infected in human PBMC measured after 48 hrs incubation by luciferase based analysis; type: functional, organism-based; conditions: Human immunodeficiency virus 1, KIZ001, PBMC
[15] = test system: Human immunodeficiency virus 1; assay: Antiviral activity against HIV-1 KIZ006 clinical isolate infected in human PBMC measured after 48 hrs incubation by luciferase based analysis; type: functional, organism-based; conditions: Human immunodeficiency virus 1, KIZ006, PBMC
[16] = test system: Human immunodeficiency virus 1; assay: Antiviral activity against HIV-1 YU-2 (G140S/Q148H) infected in human TZM-bl cells measured after 48 hrs incubation by luciferase based analysis; type: functional, organism-based; conditions: Human immunodeficiency virus 1, YU-2 (G140S/Q148H)
[17] = Cmax in Sprague-Dawley rat at 10 mg/kg, po measured upto 24 hrs; type: ADME, organism-based; parameters: time < 24 hrs, dose 10 mg/kg, route po; conditions: in vivo
[18] = Tmax in Sprague-Dawley rat at 10 mg/kg, po measured upto 24 hrs; type: ADME, organism-based; conditions: in vivo
[19] = Half life in Sprague-Dawley rat at 10 mg/kg, po measured upto 24 hrs; type: ADME, organism-based; conditions: in vivo
[20] = AUC (0 to last) in Sprague-Dawley rat at 10 mg/kg, po measured upto 24 hrs; type: ADME, organism-based; parameters: dose 10 mg/kg, time < 24 hrs, route po; conditions: in vivo
[21] = AUC (0 to infinitive) in Sprague-Dawley rat at 10 mg/kg, po measured upto 24 hrs; type: ADME, organism-based; parameters: dose 10 mg/kg, time < 24 hrs, route po; conditions: Sprague-Dawley, in vivo
[22] = MRT in Sprague-Dawley rat at 10 mg/kg, po measured upto 24 hrs; type: ADME, organism-based; conditions: in vivo
[23] = Oral bioavailability in Sprague-Dawley rat at 10 mg/kg measured upto 24 hrs; type: ADME, organism-based; conditions: Sprague-Dawley, in vivo
[24] = Half life in Sprague-Dawley rat at 2 mg/kg, iv measured upto 24 hrs; type: ADME, organism-based; conditions: in vivo, iv, 2 mg/kg, 24 h
[25] = AUC (0 to last) in Sprague-Dawley rat at 2 mg/kg, iv measured upto 24 hrs; type: ADME, organism-based; parameters: dose 2 mg/kg, time < 24 hrs, route iv; conditions: Sprague-Dawley, in vivo
[26] = AUC (0 to infinitive) in Sprague-Dawley rat at 2 mg/kg, iv measured upto 24 hrs; type: ADME, organism-based; parameters: dose 2 mg/kg, time < 24 hrs, route iv; conditions: Sprague-Dawley, in vivo
[27] = MRT in Sprague-Dawley rat at 2 mg/kg, iv measured upto 24 hrs; type: ADME, organism-based; conditions: in vivo, iv, 2 mg/kg, 24 h
Cytochrome P450 1A2 = molecular target: T1, Cytochrome P450 1A2 (Homo sapiens, UniProt P05177); assay: Inhibition of CYP1A2 (unknown origin); type: ADME
T1 sequence (P05177 whole entry): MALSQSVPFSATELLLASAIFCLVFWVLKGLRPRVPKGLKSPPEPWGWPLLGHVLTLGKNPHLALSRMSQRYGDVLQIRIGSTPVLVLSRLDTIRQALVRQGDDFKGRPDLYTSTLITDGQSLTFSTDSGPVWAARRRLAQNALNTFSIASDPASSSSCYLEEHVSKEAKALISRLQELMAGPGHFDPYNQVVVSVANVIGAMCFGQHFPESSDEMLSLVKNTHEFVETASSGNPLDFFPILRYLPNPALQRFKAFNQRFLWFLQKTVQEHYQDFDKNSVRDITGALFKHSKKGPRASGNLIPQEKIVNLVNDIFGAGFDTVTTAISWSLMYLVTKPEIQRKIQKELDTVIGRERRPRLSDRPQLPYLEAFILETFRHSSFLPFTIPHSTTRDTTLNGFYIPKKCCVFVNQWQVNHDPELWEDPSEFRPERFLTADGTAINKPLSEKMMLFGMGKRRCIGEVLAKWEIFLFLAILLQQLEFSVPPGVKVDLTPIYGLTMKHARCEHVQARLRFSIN

Cytochrome P450 2C9 = Cytochrome P450 2C9 (Homo sapiens, UniProt P11712); assay: Inhibition of CYP2C9 (unknown origin); type: ADME
Cytochrome P450 2C19 = Cytochrome P450 2C19 (Homo sapiens, UniProt P33261); assay: Inhibition of CYP2C19 (unknown origin); type: ADME
Cytochrome P450 2D6 = Cytochrome P450 2D6 (Homo sapiens, UniProt P10635); assay: Inhibition of CYP2D6 (unknown origin); type: ADME
Cytochrome P450 3A4 [28] = molecular target: T2, Cytochrome P450 3A4 (Homo sapiens, UniProt P08684); assay: Inhibition of CYP3A4 (unknown origin) using midazolam as substrate; type: ADME
Cytochrome P450 3A4 [29] = molecular target: T2, Cytochrome P450 3A4; assay: Inhibition of CYP3A4 (unknown origin) using testosterone as substrate; type: ADME
in vitro [30] = conditions: human, HOS-CD4-CCR5 cells
Description: Therapeutic index, ratio of CC50 for human HOS-CD4-CCR5 cells to EC50 for antiviral activity against HIV-1 Ba-L

in vitro [31] = conditions: human, PM1 cells
Description: Therapeutic index, ratio of CC50 for human PM1 cells to EC50 for antiviral activity against HIV-1 Ba-L

in vitro [32] = conditions: human, PM1 cells; remark: listed apart in the source
Description: Therapeutic index, ratio of CC50 for human PM1 cells to EC50 for antiviral activity against HIV-1 YU-2

in vitro [33] = conditions: human, PM1 cells; remark: listed apart in the source
Description: Therapeutic index, ratio of CC50 for human PM1 cells to EC50 for antiviral activity against HIV-1 SF162

in vitro [34] = conditions: human, PBMC
Description: Therapeutic index, ratio of CC50 for human PBMC to EC50 for antiviral activity against HIV-1 KM018 clinical isolate

in vitro [35] = conditions: human, PBMC; remark: listed apart in the source
Description: Therapeutic index, ratio of CC50 for human PBMC to EC50 for antiviral activity against HIV-1 KIZ001 clinical isolate

in vitro [36] = conditions: human, PBMC; remark: listed apart in the source
Description: Therapeutic index, ratio of CC50 for human PBMC to EC50 for antiviral activity against HIV-1 KIZ006 clinical isolate

[37] = Human immunodeficiency virus 1, YU-2, TZM-bl, 48 h

Chain of C-C chemokine receptor type 5 (P51681 whole entry): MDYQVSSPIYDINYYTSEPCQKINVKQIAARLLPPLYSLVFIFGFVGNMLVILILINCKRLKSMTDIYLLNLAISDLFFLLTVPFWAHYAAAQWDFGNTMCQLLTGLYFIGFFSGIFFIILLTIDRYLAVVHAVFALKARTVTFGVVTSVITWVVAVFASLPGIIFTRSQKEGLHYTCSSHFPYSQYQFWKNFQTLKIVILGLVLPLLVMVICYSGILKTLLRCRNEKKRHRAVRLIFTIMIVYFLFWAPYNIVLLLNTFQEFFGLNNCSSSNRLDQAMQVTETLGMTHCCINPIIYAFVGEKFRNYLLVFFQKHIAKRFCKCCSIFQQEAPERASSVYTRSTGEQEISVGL
T2 sequence (P08684 whole entry): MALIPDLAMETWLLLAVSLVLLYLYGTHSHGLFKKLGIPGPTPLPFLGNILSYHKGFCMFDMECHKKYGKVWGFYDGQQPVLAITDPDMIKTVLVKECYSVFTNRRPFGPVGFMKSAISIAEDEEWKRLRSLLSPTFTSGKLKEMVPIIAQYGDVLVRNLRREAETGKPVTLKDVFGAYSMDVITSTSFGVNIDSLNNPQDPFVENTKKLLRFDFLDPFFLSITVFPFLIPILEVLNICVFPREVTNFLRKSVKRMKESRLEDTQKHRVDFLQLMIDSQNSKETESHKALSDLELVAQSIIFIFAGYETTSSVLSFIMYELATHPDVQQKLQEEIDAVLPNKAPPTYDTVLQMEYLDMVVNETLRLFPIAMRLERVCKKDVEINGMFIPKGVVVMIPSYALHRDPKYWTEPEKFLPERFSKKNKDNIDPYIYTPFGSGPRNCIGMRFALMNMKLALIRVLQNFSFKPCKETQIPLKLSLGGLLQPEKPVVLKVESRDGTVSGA
Chain of Cytochrome P450 2C9 (P11712 whole entry): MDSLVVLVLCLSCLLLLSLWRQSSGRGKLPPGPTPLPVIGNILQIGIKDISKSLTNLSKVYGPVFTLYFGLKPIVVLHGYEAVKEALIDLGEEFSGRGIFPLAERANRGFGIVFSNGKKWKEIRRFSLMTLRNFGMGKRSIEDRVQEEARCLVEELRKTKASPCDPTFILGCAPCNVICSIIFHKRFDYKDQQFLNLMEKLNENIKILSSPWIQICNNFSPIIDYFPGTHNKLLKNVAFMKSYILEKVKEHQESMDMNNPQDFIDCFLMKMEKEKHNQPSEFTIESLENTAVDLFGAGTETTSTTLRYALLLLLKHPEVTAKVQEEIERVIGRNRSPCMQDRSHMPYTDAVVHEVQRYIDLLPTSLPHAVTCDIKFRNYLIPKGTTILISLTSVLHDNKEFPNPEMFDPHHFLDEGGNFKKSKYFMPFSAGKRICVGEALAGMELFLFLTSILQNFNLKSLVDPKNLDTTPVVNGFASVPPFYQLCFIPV
Chain of Cytochrome P450 2D6 (P10635 whole entry): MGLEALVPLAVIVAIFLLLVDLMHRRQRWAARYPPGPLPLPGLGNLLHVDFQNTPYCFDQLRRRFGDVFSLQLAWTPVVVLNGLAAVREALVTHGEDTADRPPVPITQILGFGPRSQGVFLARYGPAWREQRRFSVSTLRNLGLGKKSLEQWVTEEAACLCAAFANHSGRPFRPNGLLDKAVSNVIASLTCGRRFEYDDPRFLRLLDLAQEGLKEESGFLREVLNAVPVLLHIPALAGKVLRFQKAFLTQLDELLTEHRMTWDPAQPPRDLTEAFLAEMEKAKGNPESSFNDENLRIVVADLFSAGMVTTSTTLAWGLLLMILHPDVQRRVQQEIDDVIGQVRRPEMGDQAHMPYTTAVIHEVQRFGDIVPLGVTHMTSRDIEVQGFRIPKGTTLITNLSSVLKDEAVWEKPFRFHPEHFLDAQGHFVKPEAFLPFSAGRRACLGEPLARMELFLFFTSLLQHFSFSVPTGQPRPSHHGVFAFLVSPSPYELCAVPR
Chain of Cytochrome P450 2C19 (P33261 whole entry): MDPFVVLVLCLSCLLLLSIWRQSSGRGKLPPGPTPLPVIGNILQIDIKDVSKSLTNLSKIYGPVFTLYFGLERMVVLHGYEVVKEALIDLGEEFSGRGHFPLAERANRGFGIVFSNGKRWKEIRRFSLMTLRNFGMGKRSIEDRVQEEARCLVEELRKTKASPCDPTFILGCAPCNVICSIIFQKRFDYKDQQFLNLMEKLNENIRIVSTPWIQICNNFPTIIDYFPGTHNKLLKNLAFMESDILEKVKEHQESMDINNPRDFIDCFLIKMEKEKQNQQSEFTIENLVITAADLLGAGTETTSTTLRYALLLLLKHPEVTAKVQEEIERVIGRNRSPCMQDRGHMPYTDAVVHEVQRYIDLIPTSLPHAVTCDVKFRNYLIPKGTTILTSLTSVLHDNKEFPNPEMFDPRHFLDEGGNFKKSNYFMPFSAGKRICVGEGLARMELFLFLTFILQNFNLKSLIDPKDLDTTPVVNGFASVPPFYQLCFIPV

COc1ccc(S(N)(=O)=O)cc1C(=O)N[C@@H](CCN1[C@@H]2CC[C@H]1C[C@H](n1c(C)nnc1C(C)C)C2)c1cccs1
IC50 [1]: 1380 nM
EC50 [2]: > 200000 nM
CC50 at 48 h [3]: > 200000 nM

Cc1nnc(C(C)C)n1[C@H]1C[C@H]2CC[C@@H](C1)N2CC[C@H](NC(=O)C1CCCCC1)c1ccc(C#N)s1
IC50 [1]: > 10000 nM
EC50 [2]: > 200000 nM
CC50 at 48 h [3]: > 200000 nM

COCc1nnc(C(C)C)n1[C@@H]1C[C@H]2CC[C@@H](C1)N2CC[C@H](NC(=O)C1CCC(F)(F)CC1)c1ccsc1
IC50 [1]: 2.49 nM
EC50 [2]: 30 nM
CC50 at 48 h [3]: 72900 nM
selectivity ratio (in vitro [4]): 2430

Cc1nnc(C(C)C)n1[C@@H]1C[C@H]2CC[C@@H](C1)N2CC[C@H](NC(=O)C(F)(F)F)c1csc2ccccc12
IC50 [1]: 680 nM
CC50 at 48 h [3]: > 200000 nM
EC50 [5]: > 40000 nM

Cc1nnc(C(C)C)n1[C@@H]1C[C@H]2CC[C@@H](C1)N2CC[C@H](NC(=O)C1CCC(F)(F)CC1)c1ccsc1Cl
IC50 [1]: 5.34 nM
EC50 [2]: 540 nM
CC50 at 48 h [3]: > 200000 nM
selectivity ratio (in vitro [4]): > 370

Cc1ccsc1[C@H](CCN1[C@@H]2CC[C@H]1C[C@H](n1c(C)nnc1C(C)C)C2)NC(=O)C1CCCC1
IC50 [1]: 18.9 nM
CC50 at 48 h [3]: > 200000 nM
EC50 ([6]; tzm-bl): 29 nM and 78 nM
selectivity ratio (in vitro [4]): > 6900

Cc1nnc(C(C)C)n1[C@@H]1C[C@H]2CC[C@@H](C1)N2CC[C@H](NC(=O)C1CCCC1)c1ccsc1Cl
IC50 [1]: 4.36 nM
EC50 [2]: 910 nM
CC50 at 48 h [3]: > 200000 nM
selectivity ratio (in vitro [4]): > 219

CNS(=O)(=O)c1cccc(C(=O)N[C@@H](CCN2[C@@H]3CC[C@H]2C[C@H](n2c(C)nnc2C(C)C)C3)c2cccs2)c1
IC50 [1]: 31.9 nM
EC50 [2]: 4630 nM
CC50 at 48 h [3]: > 200000 nM
selectivity ratio (in vitro [4]): > 43.2

CC(=O)N[C@@H](CCN1[C@@H]2CC[C@H]1C[C@H](n1c(C)nnc1C(C)C)C2)c1cccs1
IC50 [1]: 15 nM
CC50 at 48 h [3]: 40500 nM
EC50 [5]: 1100 nM
selectivity ratio (in vitro [4]): 36.8

Cc1nc2c(n1[C@@H]1C[C@H]3CC[C@@H](C1)N3CC[C@H](NC(=O)C1CCC(F)(F)CC1)c1ccsc1)CCN(C(=O)C(C)C)C2
IC50 [1]: 8.34 nM
EC50 [2]: 11 nM
CC50 at 48 h [3]: > 200000 nM
CC50 at 48 h [7]: > 200000 nM
CC50 at 48 h [8]: > 200000 nM
CC50 at 48 h [9]: 81700 nM
EC50 [5]: 16 nM
EC50 [6, 37]: 8.73 nM
EC50 [10]: 1.56 nM
EC50 [11]: 0.5 nM
EC50 [12]: > 1000 nM
EC50 [13]: 32 nM
EC50 [14]: 7.82 nM
EC50 [15]: 12.6 nM
EC50 [16]: 4.34 nM
Cmax [17]: 49.5 ng/mL
Tmax [18]: 2 h
half-life [19]: 10.3 h
AUC(0-t) at 24 h [20]: 283 ng·h/mL
AUC(0-inf) [21]: 283 ng·h/mL
MRT [22]: 13.2 h
bioavailability [23]: 15.7%
t1/2 [24]: 1.6 h
AUC(0-t) at 24 h [25]: 298 ng·h/mL
AUC(0-inf) [26]: 283 ng·h/mL
MRT [27]: 13.2 h
IC50 (Cytochrome P450 1A2): > 25000 nM
IC50 (Cytochrome P450 2C9): > 25000 nM
IC50 (Cytochrome P450 2C19): > 25000 nM
IC50 (Cytochrome P450 2D6): > 25000 nM
IC50 (Cytochrome P450 3A4 [28]): > 25000 nM
IC50 (Cytochrome P450 3A4 [29]): > 25000 nM
selectivity ratio (in vitro [4]): > 18200
selectivity ratio (in vitro [30]): > 12800
selectivity ratio (in vitro [31]): > 40000
selectivity ratio (in vitro [32]): > 22900
selectivity ratio (in vitro [33]): > 12500
selectivity ratio (in vitro [34]): 2550
selectivity ratio (in vitro [35]): 10400
selectivity ratio (in vitro [36]): 6480

Cc1nnc(C(C)C)n1[C@H]1C[C@H]2CC[C@@H](C1)N2CC[C@H](NC(=O)C1CCC(F)(F)CC1)c1ccccc1 [MARAVIROC]
EC50 [2]: 15 nM
EC50 [5]: 19.2 nM
EC50 [6, 37]: 2.96 nM
EC50 [10]: 1.04 nM
EC50 [11]: 0.34 nM
EC50 [12]: > 1000 nM
EC50 [13]: 10.2 nM
EC50 [14]: 14.9 nM
EC50 [15]: 92 nM
EC50 [16]: 2.18 nM
